Data from patent US10550130B2, “Benzo-thiazolo-imidazole compounds and uses thereof” (KING SAUD UNIVERSITY, priority 2015, dated 2020).

Assays:
[1] = test system: THP-1 acute monocytic leukemia cells; test: CD34 positive cell population by flow cytometry; type: cell-based; conditions: 48 h
Experimental: THP-1 leukemic cells were cultured in RPMI medium in […] flask and treated with KSA-101696 for 48 h. Cells were then washed and stained with anti-CD34-FITC (BD biosciences) for 30 min at room temperature. The hematopoietic stem cell population (CD34 positive cells) was analyzed by flow cytometry to evaluate the effect of KAS-101696 on hematopoietic stem cells of leukemic origin.

[2] = test system: SP cells of MCF-7 cells; test: Side population (SP) cell fraction by flow cytometry; type: cell-based; conditions: Homo sapiens, MCF7, 24 h, normal culture conditions, read-out: IC50, SP cell inhibition
Description: It is known that one of the properties of stem/progenitor cells is their ability to survive under anchorage-independent conditions and generate mammospheres, which are composed of a small number of stem cells. Given that CSCs generally make up for a small minority of the cells within cancer cell populations, the dye DyeCycle Violet was used to isolate SP cells (side population cells; the side population is enriched for stem/progenitor cells), through a BD FACSAria™ cell sorter. Subsequently, the isolated SP cells were used in a Mammosphere Formation Assay. SP cells of MCF-7 and BT-474 formed more mammospheres than non-SP cells (see FIG. 4A).
Next, the effects of the compound KSA-101696 in SP cells under normal culture conditions was evaluated.

`COc1ccc(-c2csc3nc4ccccc4n23)cc1` [KSA-101696, 3-(4-methoxyphenyl)benzo[4,5]imidazo[2,1-b]thiazole] was tested. Which “CD34+ cells percentage” value [1] did it give?
The value was “reduction of CD34^+ cells percentage”.

And the IC50 [2]?
Its IC50 is ~300 nM.
